Consider nine compounds from ChEMBL document CHEMBL5728770, “Heterocycle comprising tyrosine kinase inhibitors” (2021).

Usually IC50 stands for the concentration needed to halve the response being measured.

The target of the test is Tyrosine-protein kinase BTK (Homo sapiens, UniProt Q06187). Nature of the test: Enzymatic Activity Assay: A Caliper-based kinase assay (Caliper Life Sciences, Hopkinton, Mass.) was used to measure inhibition of BTK kinase activity of a compound of the present disclosure. Serial dilutions of test compounds were incubated with human recombinant BTK (0.5 nM), ATP (16 μM) and a phosphoacceptor peptide substrate FAM-GEEPLYWSFPAKKK-NH2 (1 μM) at room temperature for 3 h. The reaction was then terminated with EDTA, final concentration 20 mM and the phosphorylated reaction product was quantified on a Caliper Desktop Profiler (Caliper LabChip 3000). Percent inhibition was calculated for each compound dilution and the concentration that produced 50% inhibition was calculated.
Sequence of Tyrosine-protein kinase BTK (Q06187 whole entry): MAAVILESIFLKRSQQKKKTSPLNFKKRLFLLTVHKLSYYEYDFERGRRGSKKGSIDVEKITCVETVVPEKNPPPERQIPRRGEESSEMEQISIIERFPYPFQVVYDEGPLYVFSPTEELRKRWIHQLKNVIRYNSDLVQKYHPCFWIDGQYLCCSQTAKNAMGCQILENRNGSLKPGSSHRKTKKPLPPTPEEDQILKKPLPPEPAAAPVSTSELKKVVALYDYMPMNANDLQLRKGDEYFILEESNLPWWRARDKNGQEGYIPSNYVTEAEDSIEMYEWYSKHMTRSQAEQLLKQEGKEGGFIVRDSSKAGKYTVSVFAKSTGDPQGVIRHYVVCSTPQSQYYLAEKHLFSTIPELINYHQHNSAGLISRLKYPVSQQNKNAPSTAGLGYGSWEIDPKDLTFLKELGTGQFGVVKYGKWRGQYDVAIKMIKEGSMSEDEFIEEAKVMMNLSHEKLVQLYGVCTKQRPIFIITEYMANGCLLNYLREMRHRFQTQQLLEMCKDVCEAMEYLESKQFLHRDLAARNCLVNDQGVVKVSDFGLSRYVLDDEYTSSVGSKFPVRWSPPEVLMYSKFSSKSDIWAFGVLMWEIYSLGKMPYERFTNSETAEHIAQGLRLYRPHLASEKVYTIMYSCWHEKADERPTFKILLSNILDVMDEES

`CN1CCN(C(C)(C)C=C(C#N)C(=O)N2CCC[C@@H](c3nc(-c4ccc(Oc5ccccc5)cc4F)c4c(N)nccn34)C2)CC1=O`: the IC50 is 2.6 nM.
The result for `CC(C)(C=C(C#N)C(=O)N1CCC[C@@H](c2nc(-c3ccc(Oc4ccccc4)cc3F)c3c(N)nccn23)C1)N1CCN(C2(C)COC2)CC1` reads 2.4 nM; that for `Cc1cc(-c2nn([C@@H]3CCCN(C(=O)C(C#N)=CC(C)(C)N4CCN(C5COC5)CC4)C3)c3ccnc(N)c23)ccc1Oc1ccccc1`, 1.3 nM; that for `CC(C)(C=C(C#N)C(=O)N1CCC[C@@H](n2nc(-c3ccc(C(=O)Nc4ccccn4)cc3)c3c(N)nccc32)C1)N1CCN(C2COC2)CC1`, 2.2 nM.
Turning to `CC(C)(C=C(C#N)C(=O)N1CCC[C@@H](n2nc(-c3ccc(Oc4ccccc4)cc3F)c3c(N)nccc32)C1)N1CCN(C2COC2)CC1`, the IC50 is 1.4 nM.
Turning to `CC(C)(C=C(C#N)C(=O)N1CCC[C@@H](n2nc(-c3ccc(Oc4ccccc4)cc3F)c3c(N)ncnc32)C1)N1CCN(C2(C)COC2)CC1`, the IC50 is 0.3 nM.
The result for `CC(C)(C=C(C#N)C(=O)N1CCC[C@@H](n2nc(-c3ccc(Oc4ccccc4)cc3F)c3c(N)nccc32)C1)C1(C)CCN(C2COC2)CC1` reads 45.7 nM; that for `CC(C)(C=C(C#N)C(=O)N1CCC[C@@H](n2nc(-c3ccc(Oc4ccccc4)cc3F)c3c(N)nccc32)C1)N1CCN(C2(C)COC2)CC1`, 0.8 nM; that for `CC(C)(C=C(C#N)C(=O)N1CCC[C@@H](n2nc(-c3ccc(Oc4ccccc4F)cc3)c3c(N)nccc32)C1)N1CCN(C2COC2)CC1`, 2.2 nM.
